Data as given in patent US5114935A, “Substituted 6-benzyl-2H-3,4,5,6-tetrahydro-(1,3)-oxazines” (Dr. Karl Thomae GmbH, priority 1989, dated 1992).
Where a name gives a salt, the structure may show the parent alone. Read-outs that look alike come from different tables or passages of the source.

Key:
[1] = tested on: mechanically provoked coughing; assay: Antitussive activity: mechanically provoked coughing in anaesthetised cats; format: in vivo, cat; conditions: for ED50: Felis catus, iv, read-out: ED50 after parallel adjustment (50% reduction in the number of coughs)
Procedure: The antitussive activity of the compound 6-(p-chlorobenzyl)-3,5,6-trimethyl-2H-3, 4, 5, 6-tetrahydro-oxazine (1,3)-hydrochloride was tested as follows:
33 male and female cats with a body weight of 3.4 to 4.5 kg were anaesthetised with pentobarbital-Na (45 mg/kg as an initial bolus i.p. and then, spread throughout the experiment, several times as required, 7.5 or 15 mg/kg i.v.). Care was taken to keep the animals at about stage 1 to 2 (Guedel) of the tolerance stage.
Coughing fits were provoked mechanically by the insertion of a plastic catheter with a rounded tip, diameter about 1.5 mm, into the trachea as far as the bifurcation. At each time of irritation, a series of 3 stimuli were carried out at intervals of about 30 seconds. The coughing fits were always provoked 5, 25 and 45 minutes after administration of the test substance or vehicle.
The test substance was administered as a solution in 0.9% NaCl solution through a catheter in the V. femoralis. The injected volume was not more than 0.5 ml/kg. Before administration of the substance, the effect of the vehicle was tested on each animal.
By linear regression analysis and linear covariance analysis, the ED50 value (50% reduction in the number of coughs) was determined after parallel adjustment (Table 2).

opiate receptors = assay: Test of Binding to the Opiate Receptor: inhibition of 3H-diprenorphine binding; design: species or system rat; conditions: up to 100 μM; 0.5 nM 3H-diprenorphine

With `CC1CN(C)COC1(C)Cc1ccc(Cl)cc1` (stereo not drawn) [Active substance, 6-(p-chloro-benzyl)-3,5,6-trimethyl-2H-3,4,5,6-tetrahydro-oxazine(1,3)-hydrochloride] the “Percentage inhibition of coughing, MW ± SE” value ([1]; 0.5 mg/kg i.v., after 5 minutes, n=5) was 26.7 ± 8.5%, the “Percentage inhibition of coughing, MW ± SE” value ([1]; 0.5 mg/kg i.v., after 25 minutes, n=5) was 16.7 ± 10.5% and the “Percentage inhibition of coughing, MW ± SE” value ([1]; 0.5 mg/kg i.v., after 45 minutes, n=5) was 23.3 ± 10.0%. For the same compound, the “Percentage inhibition of coughing, MW ± SE” value ([1]; 0.705 mg/kg i.v., after 5 minutes, n=5) was 23.3 ± 6.7%, the “Percentage inhibition of coughing, MW ± SE” value ([1]; 0.705 mg/kg i.v., after 25 minutes, n=5) was 13.3 ± 6.2% and the “Percentage inhibition of coughing, MW ± SE” value ([1]; 0.705 mg/kg i.v., after 45 minutes, n=5) was 13.3 ± 3.3%. The “Percentage inhibition of coughing, MW ± SE” value ([1]; 1.0 mg/kg i.v., after 5 minutes, n=5) was 33.3 ± 18.3%, the “Percentage inhibition of coughing, MW ± SE” value ([1]; 1.0 mg/kg i.v., after 25 minutes, n=5) was 40.0 ± 16.3% and the “Percentage inhibition of coughing, MW ± SE” value ([1]; 1.0 mg/kg i.v., after 45 minutes, n=5) was 36.7 ± 3.3%. The “Percentage inhibition of coughing, MW ± SE” value ([1]; 1.41 mg/kg i.v., after 5 minutes, n=5) was 63.3 ± 13.3%, the “Percentage inhibition of coughing, MW ± SE” value ([1]; 1.41 mg/kg i.v., after 25 minutes, n=5) was 53.3 ± 16.2% and the “Percentage inhibition of coughing, MW ± SE” value ([1]; 1.41 mg/kg i.v., after 45 minutes, n=5) was 50.0 ± 18.3%. For the same compound, the “Percentage inhibition of coughing, MW ± SE” value ([1]; 2.0 mg/kg i.v., after 5 minutes, n=5) was 33.3 ± 17.5%, the “Percentage inhibition of coughing, MW ± SE” value ([1]; 2.0 mg/kg i.v., after 25 minutes, n=5) was 53.3 ± 14.3% and the “Percentage inhibition of coughing, MW ± SE” value ([1]; 2.0 mg/kg i.v., after 45 minutes, n=5) was 36.7 ± 17.0%. The “Percentage inhibition of coughing, MW ± SE” value ([1]; 2.83 mg/kg i.v., after 5 minutes, n=5) was 36.7 ± 14.3%, the “Percentage inhibition of coughing, MW ± SE” value ([1]; 2.83 mg/kg i.v., after 25 minutes, n=5) was 43.3 ± 13.5% and the “Percentage inhibition of coughing, MW ± SE” value ([1]; 2.83 mg/kg i.v., after 45 minutes, n=5) was 40.0 ± 11.3%. For the same compound, the “Percentage inhibition of coughing, MW ± SE” value ([1]; 4.0 mg/kg i.v., after 5 minutes, n=5) was 60.0 ± 11.3%, the “Percentage inhibition of coughing, MW ± SE” value ([1]; 4.0 mg/kg i.v., after 25 minutes, n=5) was 63.3 ± 13.3% and the “Percentage inhibition of coughing, MW ± SE” value ([1]; 4.0 mg/kg i.v., after 45 minutes, n=5) was 46.7 ± 9.7%. The “Percentage inhibition of coughing, MW ± SE” value ([1]; 5.64 mg/kg i.v., after 5 minutes, n=5) was 70.0 ± 20.0%, the “Percentage inhibition of coughing, MW ± SE” value ([1]; 5.64 mg/kg i.v., after 25 minutes, n=5) was 70.0 ± 20.0% and the “Percentage inhibition of coughing, MW ± SE” value ([1]; 5.64 mg/kg i.v., after 45 minutes, n=5) was 63.3 ± 17.0%. The “Percentage inhibition of coughing, MW ± SE” value ([1]; 8.0 mg/kg i.v., after 5 minutes, n=3) was 44.4 ± 29.4%, the “Percentage inhibition of coughing, MW ± SE” value ([1]; 8.0 mg/kg i.v., after 25 minutes, n=3) was 50.0 ± 25.5% and the “Percentage inhibition of coughing, MW ± SE” value ([1]; 8.0 mg/kg i.v., after 45 minutes, n=3) was 44.4 ± 20.0%. It also gave an ED50 ([1]; 5 min, 5 minutes after administration) of 2.6 mg/kg, an ED50 ([1]; 25 min, 25 minutes after administration) of 2.4 mg/kg and an ED50 ([1]; 0.75 h, 45 minutes after administration) of 3.2 mg/kg. For the same compound, the “effect on the number of mechanically provoked coughs” value ([1]; intravenously, 0.5 to 8 mg/kg) was “reducing the number of mechanically provoked coughs”, the “cough-suppressing effect, doses and testing times at which observed” value ([1]; intravenously, 0.5 to 8 mg/kg, 5, 25 and 45 minutes) was “observed from the lowest administered dose upwards, at every testing time” and the “inhibition of 3H-diprenorphine binding” value (opiate receptors) was “no inhibition”.
